Experimental data published in ChEMBL document CHEMBL1201862, “PubChem BioAssay data set” (2004).
Activity calls are given as the source filed them.

Tests used:
[1] = target: T1, 1-phosphatidylinositol 4,5-bisphosphate phosphodiesterase gamma-1 (Homo sapiens, UniProt P19174); assay: Counterscreen for inhibitors of phospholipase C isozymes (PLC-B3): Fluorescence-based biochemical high throughput dose response assay to identify inhibitors of phospholipase C isozymes (PLC-gamma1).
T1 sequence (P19174 whole entry): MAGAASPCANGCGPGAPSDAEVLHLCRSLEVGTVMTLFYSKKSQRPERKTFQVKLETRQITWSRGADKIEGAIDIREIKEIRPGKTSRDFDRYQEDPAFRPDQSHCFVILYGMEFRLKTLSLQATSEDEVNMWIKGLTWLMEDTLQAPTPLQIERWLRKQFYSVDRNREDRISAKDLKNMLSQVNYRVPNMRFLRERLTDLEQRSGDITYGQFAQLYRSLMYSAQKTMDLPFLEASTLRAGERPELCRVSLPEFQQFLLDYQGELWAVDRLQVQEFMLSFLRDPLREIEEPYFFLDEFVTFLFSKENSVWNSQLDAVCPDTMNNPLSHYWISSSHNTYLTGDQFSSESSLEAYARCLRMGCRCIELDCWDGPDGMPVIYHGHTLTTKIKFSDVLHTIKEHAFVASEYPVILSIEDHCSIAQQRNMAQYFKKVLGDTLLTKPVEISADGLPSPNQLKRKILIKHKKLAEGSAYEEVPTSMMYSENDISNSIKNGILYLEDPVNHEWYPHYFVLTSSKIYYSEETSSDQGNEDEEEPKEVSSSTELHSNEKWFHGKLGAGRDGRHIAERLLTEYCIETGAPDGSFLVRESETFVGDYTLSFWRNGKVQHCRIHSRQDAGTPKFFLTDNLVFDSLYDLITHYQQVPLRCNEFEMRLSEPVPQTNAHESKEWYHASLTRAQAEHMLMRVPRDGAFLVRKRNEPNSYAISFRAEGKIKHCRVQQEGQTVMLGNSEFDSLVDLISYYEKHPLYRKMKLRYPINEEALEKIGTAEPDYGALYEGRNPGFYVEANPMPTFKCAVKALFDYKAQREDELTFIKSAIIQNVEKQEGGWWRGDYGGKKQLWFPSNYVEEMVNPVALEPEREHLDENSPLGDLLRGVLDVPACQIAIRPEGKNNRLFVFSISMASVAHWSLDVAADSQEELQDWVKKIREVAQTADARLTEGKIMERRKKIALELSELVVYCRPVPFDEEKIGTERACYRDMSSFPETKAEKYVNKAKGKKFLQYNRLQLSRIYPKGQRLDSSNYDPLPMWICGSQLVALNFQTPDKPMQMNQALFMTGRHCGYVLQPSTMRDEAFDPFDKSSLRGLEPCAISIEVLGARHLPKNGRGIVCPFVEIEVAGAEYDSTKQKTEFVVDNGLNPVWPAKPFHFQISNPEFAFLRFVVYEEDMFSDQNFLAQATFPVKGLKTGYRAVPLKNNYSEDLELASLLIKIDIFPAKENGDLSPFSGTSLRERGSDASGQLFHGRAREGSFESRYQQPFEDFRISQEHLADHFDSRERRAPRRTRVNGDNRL

[2] = target: T2, 1-phosphatidylinositol 4,5-bisphosphate phosphodiesterase beta-3 (Homo sapiens, UniProt Q01970); assay: Fluorescence-based biochemical high throughput dose response assay to identify inhibitors of phospholipase C isozymes (PLC-B3).
T2 sequence (Q01970 whole entry): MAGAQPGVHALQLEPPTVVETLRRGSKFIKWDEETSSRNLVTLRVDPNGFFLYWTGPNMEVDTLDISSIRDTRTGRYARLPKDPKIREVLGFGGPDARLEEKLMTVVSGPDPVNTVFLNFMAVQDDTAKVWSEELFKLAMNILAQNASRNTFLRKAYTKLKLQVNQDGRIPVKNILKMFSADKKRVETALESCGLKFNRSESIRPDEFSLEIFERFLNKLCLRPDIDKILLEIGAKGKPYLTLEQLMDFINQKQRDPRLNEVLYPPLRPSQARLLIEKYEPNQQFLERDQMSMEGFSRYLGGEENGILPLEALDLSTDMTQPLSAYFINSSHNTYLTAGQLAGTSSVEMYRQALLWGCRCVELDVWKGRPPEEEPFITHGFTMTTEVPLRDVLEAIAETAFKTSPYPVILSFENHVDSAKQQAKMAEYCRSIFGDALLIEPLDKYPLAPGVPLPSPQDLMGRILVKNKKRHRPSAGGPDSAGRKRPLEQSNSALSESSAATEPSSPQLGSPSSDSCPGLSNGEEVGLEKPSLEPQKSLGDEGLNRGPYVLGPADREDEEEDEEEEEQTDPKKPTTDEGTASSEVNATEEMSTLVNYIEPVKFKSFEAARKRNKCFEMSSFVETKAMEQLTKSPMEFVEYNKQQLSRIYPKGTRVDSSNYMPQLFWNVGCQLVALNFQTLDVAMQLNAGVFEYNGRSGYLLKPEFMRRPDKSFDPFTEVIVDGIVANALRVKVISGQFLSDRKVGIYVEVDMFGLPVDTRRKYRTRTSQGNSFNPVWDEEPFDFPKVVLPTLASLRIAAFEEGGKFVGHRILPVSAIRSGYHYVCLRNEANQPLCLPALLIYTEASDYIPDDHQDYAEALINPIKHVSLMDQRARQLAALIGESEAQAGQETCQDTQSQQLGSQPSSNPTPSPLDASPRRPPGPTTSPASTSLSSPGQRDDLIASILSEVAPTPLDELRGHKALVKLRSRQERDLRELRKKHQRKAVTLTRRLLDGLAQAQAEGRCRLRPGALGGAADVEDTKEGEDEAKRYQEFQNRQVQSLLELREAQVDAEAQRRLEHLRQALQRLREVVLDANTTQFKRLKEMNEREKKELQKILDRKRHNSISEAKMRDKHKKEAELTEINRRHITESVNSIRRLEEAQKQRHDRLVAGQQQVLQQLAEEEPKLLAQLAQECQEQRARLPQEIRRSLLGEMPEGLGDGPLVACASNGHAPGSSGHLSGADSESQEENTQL

Paired box protein Pax-8 = Paired box protein Pax-8 (Homo sapiens, UniProt Q06710); assay: PAX8 transcriptional activity inhibition in RMG-I – RMG-I cells, luciferase, cherry-pick, dose response (AID 687027); format: functional, cell-based;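 also: luciferase reporter driven by Pax8 target thyroperoxidase promoter measured by SteadyGlo luminescence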
[3] = target: Disintegrin and metalloproteinase domain-containing protein 17 (Homo sapiens, UniProt P78536); assay: inhibition of ADAM17 substrate cleavage – biochemical, quenched FRET substrate, counter-screen for ADAM10 exosite inhibitor project, dose response (AID 743253)
[4] = potency of ADAM10 substrate cleavage blockers – biochemical, QFRET, dose response (AID 743254);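 also: ADAM10 enzyme with the DM2 quenched FRET peptide as substrate; EDANS fluorescence gain as the protease cuts the substrate; inhibitor potency against ADAM10 proteolytic activity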
INS1 = assay: INS-1E survival protection against cytokine death – cell-based, luminescence, retest, dose response (AID 449756); format: functional; settings: Rattus norvegicus;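 also: cell death triggered by IL-1 beta plus TNF-alpha plus IFN-gamma mixture; protective hits raise ATP signal compared with cytokine alone wells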
[5] = alpha-synuclein stem-loop luciferase translation blockers – H4 neuroglioma cells, luminescence, confirmation (AID 1988); format: functional, cell-based
[6] = luciferase reporter signal suppression in cells – H4 neuroglioma cells, luminescence, dose response (AID 1990); format: functional, cell-based
[7] = target: T3, Ubiquitin-conjugating enzyme E2 N (Homo sapiens, UniProt P61088); format: functional;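 also: Dose-response confirmation in a TR-FRET assay detecting UBC13-driven polyubiquitin chain formation, inhibition measured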
T3 sequence (P61088 whole entry): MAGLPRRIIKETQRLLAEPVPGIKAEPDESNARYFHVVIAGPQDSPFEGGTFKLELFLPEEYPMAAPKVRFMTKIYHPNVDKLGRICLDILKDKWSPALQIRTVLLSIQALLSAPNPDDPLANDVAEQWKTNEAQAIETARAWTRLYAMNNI

[8] = Trypanosoma cruzi growth suppression in host cells – NIH3T3 host cells, beta-gal luminescence, confirmation (AID 2044); format: functional, cell-based;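 also: intracellular parasites grown in NIH/3T3 mouse fibroblasts as host cells; luminescent beta-galactosidase reporter signal from transgenic T. cruzi replicating inside host cells; inhibitors lower the luminescence signal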
[9] = general cell-killing toxicity readout – plate reader, dry powder samples, cytotoxicity control for PAX8 inhibitor project, dose response (AID 743021); format: functional, cell-based
[10] = target: T4, Heat shock factor protein 1 (Mus musculus, UniProt P38532); assay: enhancement of HSF1-driven luciferase signal – cell-based, NIH3T3, luminescence, dose retest, confirmation (AID 435004); format: functional;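 also: stress induced by proteasome inhibitor MG132 added 30 min after compound; luciferase reporter driven by HSF1 response element in NIH3T3 cells; actives raise luminescence as potentiators of the MG132 stress response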
T4 sequence (P38532 whole entry): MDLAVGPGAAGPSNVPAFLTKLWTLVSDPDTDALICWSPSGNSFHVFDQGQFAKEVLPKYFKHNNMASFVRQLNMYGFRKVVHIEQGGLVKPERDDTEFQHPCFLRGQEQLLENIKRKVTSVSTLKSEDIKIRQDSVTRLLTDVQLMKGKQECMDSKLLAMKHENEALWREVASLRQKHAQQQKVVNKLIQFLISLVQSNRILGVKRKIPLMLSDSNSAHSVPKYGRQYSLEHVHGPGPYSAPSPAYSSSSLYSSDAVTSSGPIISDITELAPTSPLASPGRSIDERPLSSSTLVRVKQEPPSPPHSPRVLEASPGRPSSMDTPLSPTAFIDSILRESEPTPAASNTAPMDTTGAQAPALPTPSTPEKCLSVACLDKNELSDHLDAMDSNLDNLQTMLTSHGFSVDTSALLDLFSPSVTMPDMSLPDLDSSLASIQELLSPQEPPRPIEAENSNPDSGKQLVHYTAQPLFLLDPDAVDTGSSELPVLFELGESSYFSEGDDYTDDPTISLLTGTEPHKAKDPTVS

[11] = NIH3T3 cell viability loss – ATP luminescence, mouse fibroblasts, counter-screen, dose response (AID 2010); format: functional, cell-based;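 also: cells exposed to compound for about 90 hours before reading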
[12] = Luminescence Cell-Based Dose Response HTS to Identify Inhibitors of 5'UTR Stem-Loop Driven Prion Protein mRNA Translation in H4 Neuroglioblastoma Cells. [Related pubchem assays: 1827 (Project Summary), 1813 (Primary HTS)]; format: functional
[13] = target: Peroxisome proliferator-activated receptor gamma/Nuclear receptor coactivator 1 (Homo sapiens, UniProt P37231); assay: TR-FRET dose response biochemical High Throughput Screening assay for agonists of the steroid receptor coactivator 1 (SRC-1) recruitment by the peroxisome proliferator-activated receptor gamma (PPAR gamma): non-selective agonists. [Related pubchem assays (depositor defined):AID1300, AID1808, AID504735, AID631]; format: protein assay
[14] = target: Peroxisome proliferator-activated receptor gamma/Nuclear receptor coactivator 2 (Homo sapiens, UniProt P37231); assay: (§1) TR-FRET dose response biochemical High Throughput Screening assay for agonists of the steroid receptor coactivator 2 (SRC-2) recruitment by the peroxisome proliferator-activated receptor gamma (PPAR gamma): non-selective agonists. [Related pubchem assays: 1297, 1032 ]; format: functional
[15] = target: Peroxisome proliferator-activated receptor gamma/Nuclear receptor coactivator 3 (Homo sapiens, UniProt P37231); assay: as §1, with “3 (SRC-3)” for “2 (SRC-2)”, “1301 (Confirmation screen.), 1048 (Primary screen.)]” for “1297, 1032 ]”; format: functional
[16] = fluconazole-exposed Candida albicans growth modulators – fluorescence, retest, confirmation (AID 2467); format: functional, cell-based
[17] = NIH-3T3 fibroblast cytotoxicity, dose response, cytotoxicity control, cell-based, fluorescence, Alamar Blue, secondary assay (AID 2327); format: functional;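 also: NIH-3T3 mouse fibroblasts cultured with fluconazole at 8 µg/mL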
[18] = target: Heat shock protein HSP 90-alpha (Homo sapiens, UniProt P07900); format: functional, organism-based

Disintegrin and metalloproteinase domain-containing protein 17, sequence (P78536 whole entry, the tested form may be a part): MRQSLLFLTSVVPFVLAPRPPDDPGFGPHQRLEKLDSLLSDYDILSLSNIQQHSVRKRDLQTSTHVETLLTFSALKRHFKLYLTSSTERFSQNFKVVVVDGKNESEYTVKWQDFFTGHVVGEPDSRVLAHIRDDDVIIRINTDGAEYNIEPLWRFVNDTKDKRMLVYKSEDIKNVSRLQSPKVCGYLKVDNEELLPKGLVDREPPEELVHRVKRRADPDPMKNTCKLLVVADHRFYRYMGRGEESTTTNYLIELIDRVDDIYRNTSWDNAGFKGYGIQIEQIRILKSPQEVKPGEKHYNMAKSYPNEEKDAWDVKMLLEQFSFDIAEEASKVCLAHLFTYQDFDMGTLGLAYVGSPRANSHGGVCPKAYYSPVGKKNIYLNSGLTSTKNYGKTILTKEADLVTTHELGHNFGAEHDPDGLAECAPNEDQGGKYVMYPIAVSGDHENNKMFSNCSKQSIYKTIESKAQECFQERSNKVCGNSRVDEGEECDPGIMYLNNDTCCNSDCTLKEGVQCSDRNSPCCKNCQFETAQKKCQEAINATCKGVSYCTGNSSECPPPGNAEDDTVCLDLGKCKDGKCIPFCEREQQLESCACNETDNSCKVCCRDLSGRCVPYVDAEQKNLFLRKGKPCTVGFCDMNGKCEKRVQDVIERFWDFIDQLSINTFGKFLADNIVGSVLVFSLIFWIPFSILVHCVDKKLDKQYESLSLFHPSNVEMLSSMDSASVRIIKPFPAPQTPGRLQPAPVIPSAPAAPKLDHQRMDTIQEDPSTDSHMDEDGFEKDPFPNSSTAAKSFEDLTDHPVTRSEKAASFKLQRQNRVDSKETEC
Paired box protein Pax-8, sequence (Q06710 whole entry, the tested form may be a part): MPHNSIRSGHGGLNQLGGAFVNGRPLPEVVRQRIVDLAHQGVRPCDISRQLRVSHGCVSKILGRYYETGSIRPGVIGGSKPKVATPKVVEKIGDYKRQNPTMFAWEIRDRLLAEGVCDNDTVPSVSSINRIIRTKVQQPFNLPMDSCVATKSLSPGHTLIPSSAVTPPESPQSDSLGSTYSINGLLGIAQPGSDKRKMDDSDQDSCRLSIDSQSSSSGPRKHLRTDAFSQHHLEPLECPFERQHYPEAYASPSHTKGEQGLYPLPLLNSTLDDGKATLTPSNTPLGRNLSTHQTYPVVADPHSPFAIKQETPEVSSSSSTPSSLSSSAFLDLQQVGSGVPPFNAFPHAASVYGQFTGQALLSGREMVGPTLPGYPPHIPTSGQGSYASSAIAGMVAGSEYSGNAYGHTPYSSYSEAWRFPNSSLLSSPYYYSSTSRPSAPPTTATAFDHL
Peroxisome proliferator-activated receptor gamma/Nuclear receptor coactivator 3, sequence (P37231 whole entry): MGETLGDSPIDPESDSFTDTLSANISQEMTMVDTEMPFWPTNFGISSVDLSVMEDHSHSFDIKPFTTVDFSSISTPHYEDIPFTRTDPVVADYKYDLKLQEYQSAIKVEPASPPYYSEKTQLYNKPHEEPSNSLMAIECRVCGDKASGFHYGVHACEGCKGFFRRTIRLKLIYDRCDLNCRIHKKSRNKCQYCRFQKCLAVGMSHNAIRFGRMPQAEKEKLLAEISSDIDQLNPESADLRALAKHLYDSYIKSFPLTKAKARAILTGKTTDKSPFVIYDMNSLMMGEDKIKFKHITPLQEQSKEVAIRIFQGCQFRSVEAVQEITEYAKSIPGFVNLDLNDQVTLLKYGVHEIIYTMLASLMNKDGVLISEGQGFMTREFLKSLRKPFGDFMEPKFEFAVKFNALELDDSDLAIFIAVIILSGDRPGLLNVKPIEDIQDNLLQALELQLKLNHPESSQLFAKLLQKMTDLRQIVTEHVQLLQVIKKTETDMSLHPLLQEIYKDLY
Peroxisome proliferator-activated receptor gamma/Nuclear receptor coactivator 3, sequence (Q9Y6Q9 whole entry, further chain): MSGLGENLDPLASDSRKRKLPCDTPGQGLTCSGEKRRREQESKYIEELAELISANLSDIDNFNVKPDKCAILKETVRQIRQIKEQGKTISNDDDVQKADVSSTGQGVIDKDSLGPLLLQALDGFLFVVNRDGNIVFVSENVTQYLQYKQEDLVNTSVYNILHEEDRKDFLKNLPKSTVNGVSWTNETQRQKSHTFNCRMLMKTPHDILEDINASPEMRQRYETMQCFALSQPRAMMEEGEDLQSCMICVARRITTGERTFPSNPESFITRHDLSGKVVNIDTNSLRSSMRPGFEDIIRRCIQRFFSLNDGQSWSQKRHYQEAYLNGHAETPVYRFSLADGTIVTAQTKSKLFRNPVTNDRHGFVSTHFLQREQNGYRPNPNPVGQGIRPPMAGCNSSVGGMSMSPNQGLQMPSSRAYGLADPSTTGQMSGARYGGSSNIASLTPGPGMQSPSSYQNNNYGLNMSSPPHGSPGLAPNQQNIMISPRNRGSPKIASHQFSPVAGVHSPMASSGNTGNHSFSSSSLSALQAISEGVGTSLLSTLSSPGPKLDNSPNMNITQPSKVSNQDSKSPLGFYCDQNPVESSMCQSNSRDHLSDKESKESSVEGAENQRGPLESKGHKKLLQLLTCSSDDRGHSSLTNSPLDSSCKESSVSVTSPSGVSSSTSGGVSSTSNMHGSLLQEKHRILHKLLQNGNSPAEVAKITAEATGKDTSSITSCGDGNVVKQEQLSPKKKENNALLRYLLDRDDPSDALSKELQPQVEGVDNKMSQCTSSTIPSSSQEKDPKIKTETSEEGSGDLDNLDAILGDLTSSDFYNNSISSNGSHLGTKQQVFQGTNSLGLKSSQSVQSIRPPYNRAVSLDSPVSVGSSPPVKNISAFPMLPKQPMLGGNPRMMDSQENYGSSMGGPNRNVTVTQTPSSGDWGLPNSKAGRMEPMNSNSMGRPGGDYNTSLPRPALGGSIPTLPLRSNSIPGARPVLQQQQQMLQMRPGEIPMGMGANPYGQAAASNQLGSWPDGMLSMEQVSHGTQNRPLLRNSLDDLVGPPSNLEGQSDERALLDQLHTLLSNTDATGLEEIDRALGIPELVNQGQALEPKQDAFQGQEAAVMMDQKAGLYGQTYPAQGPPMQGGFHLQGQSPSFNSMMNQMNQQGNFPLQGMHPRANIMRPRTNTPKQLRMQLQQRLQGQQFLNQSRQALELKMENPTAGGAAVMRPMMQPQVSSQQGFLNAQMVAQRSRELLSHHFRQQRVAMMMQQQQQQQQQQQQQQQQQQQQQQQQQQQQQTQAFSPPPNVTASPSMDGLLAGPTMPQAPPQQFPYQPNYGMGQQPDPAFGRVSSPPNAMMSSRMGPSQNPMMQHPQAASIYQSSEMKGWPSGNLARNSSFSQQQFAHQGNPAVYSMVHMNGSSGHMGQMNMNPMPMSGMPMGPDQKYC

SMILES | IC50 [1] | IC50 [2] | AC50 (Paired box protein Pax-8) | IC50 [3] | IC50 [4] | AC50 (INS1) | EC50 [5] | EC50 [6] | EC50 [12] | further results
CCN(C(=O)COC(=O)c1ccc(C=O)cc1)c1c(N)n(Cc2ccccc2)c(=O)[nH]c1=O | > 122 µM (inactive) | > 122 µM (inactive) |  |  |  |  |  |  |  | 
C=CCC[C@@H](Cc1ccc(F)cc1)C(=O)OC[C@@H](Cc1c[nH]c2ccccc12)NC(=O)[C@H](CC=C)CC(=O)N(CCO)Cc1ccccc1 |  |  | 10.9 µM (active) | > 69.5 µM (inactive) | 15.4 µM (inactive) |  |  |  |  | 
COc1ccc(/C=N/Nc2cc(C)nc3ccc(Br)cc23)cc1 |  |  | 8.78 µM (active) |  |  | 5.79 µM (active) | 7.61 µM (active) | > 120 µM (not active) | 8.17 µM (active) | IC50 [7]: > 20 µM (inactive); EC50 [8]: 1.55 µM (active); AC50 [9]: 26.8 µM (active); EC50 [10]: > 260 µM (inactive); EC50 [11]: 8.92 µM (active)
NS(=O)(=O)c1ccc(N/N=C/c2ccc(O)cc2O)c([N+](=O)[O-])c1 | > 123 µM (inactive) | > 123 µM (inactive) |  |  |  |  |  |  |  | 
COc1ccc(NC(C)C(=O)N/N=C/c2ccccc2OCc2cccc(Br)c2)cc1 (stereo unspecified) |  |  |  | > 69.5 µM (inactive) | > 69.5 µM (inactive) |  |  |  |  | EC50 [13]: > 79.4 µM (inactive); EC50 [14]: > 79.4 µM (not active); EC50 [15]: > 79.4 µM (not active)
CCOc1ccc(C(Nc2cccnc2)c2cc(Cl)c3cccnc3c2O)cc1 (stereo unspecified) |  |  |  | 9.11 µM (active) | 5.53 µM (active) | 3.6 µM (active) | > 120 µM (not active) | 12.1 µM (active) | 13.7 µM (active) | EC50 [16]: 0.348 µM (active); EC50 [17]: 7.98 µM (inconclusive); AC50 [18]: 2.68 µM (active)
